Square brackets hold non-standard residues; d marks the D form. Peptide text beside a SMILES is read from it. * marks the point of attachment. Fluorescein(5-NHCOCH2) = O=C(C*)Nc1ccc2c(c1)C(=O)OC21c2ccc(O)cc2Oc2cc(O)ccc21; pS = N[C@@H](COP(=O)(O)O)C(=O)O
What was measured:
[1] = system: cGMP-dependent protein kinase (PKG); assay: Phosphotransferase assay, PKG; format: biochemical; details: 1 up to 5 μM
[2] = molecular target: protein kinase Cα (PKC-α) (Homo sapiens, UniProt P17252); assay: Phosphotransferase assay, PKC-α; format: biochemical; details: 1-K252a up to 100 nM; 1 up to 5 μM
[3] = system: Ca++/calmodulin kinase II (CamKII); assay: Phosphotransferase assay, CamKII; format: biochemical; details: 1-K252a up to 100 nM; 1 up to 5 μM
[4] = molecular target: PKA (Homo sapiens, UniProt P17612); assay: PKA phosphotransferase assay, streptavidin-matrix capture of [32P]-phosphorylated substrates; format: biochemical; details: ATP and peptide substrate below KM
[5] = molecular target: Akt kinase (PKB) (Homo sapiens, UniProt P31749); assay: Phosphotransferase assay, PKB; format: biochemical; details: 1-K252a up to 100 nM; 1 up to 5 μM
[6] = molecular target: T1, CBP KIX L599A (Mus musculus, UniProt P45481, L599A); assay: Equilibrium fluorescence polarization, CBP KIX variant L599A; format: binding
T1 construct: made in house; host or cells: E. coli BL21(DE3) pArg

[7] = molecular target: T2, CBP KIX Y658F (Mus musculus, UniProt P45481, Y658F); assay: Equilibrium fluorescence polarization, CBP KIX variant Y658F; format: binding
T2 construct: made in house; host or cells: E. coli BL21(DE3) pArg

[8] = molecular target: T3, CBP KIX K662A (Mus musculus, UniProt P45481, K662A); assay: Equilibrium fluorescence polarization, CBP KIX variant K662A; format: binding
T3 construct: made in house; host or cells: E. coli BL21(DE3) pArg

[9] = molecular target: T4, CBP KIX L603A (Mus musculus, UniProt P45481, L603A); assay: Equilibrium fluorescence polarization, CBP KIX variant L603A; format: binding
T4 construct: made in house; host or cells: E. coli BL21(DE3) pArg

[10] = molecular target: T5, CBP KIX K606A (Mus musculus, UniProt P45481, K606A); assay: Equilibrium fluorescence polarization, CBP KIX variant K606A; format: binding
T5 construct: made in house; host or cells: E. coli BL21(DE3) pArg

[11] = molecular target: T6, HisKIX (His-tagged CBP KIX domain) (Mus musculus, UniProt P45481); assay: Equilibrium fluorescence polarization, HisKIX binding
T6 construct: The CBP KIX-coding region (residues 586 to 672) of pGEX-KT KIX 10-672; made in house; host or cells: E. coli BL21(DE3) pArg

[12] = molecular target: T7, CBP KIX LL652-3AA (Mus musculus, UniProt P45481, L652A/L653A); assay: Equilibrium fluorescence polarization, CBP KIX variant LL652-3AA; format: binding
T7 construct: made in house; host or cells: E. coli BL21(DE3) pArg

[13] = molecular target: T8, CBP KIX Y650A (Mus musculus, UniProt P45481, Y650A); assay: Equilibrium fluorescence polarization, CBP KIX variant Y650A; format: binding
T8 construct: made in house; host or cells: E. coli BL21(DE3) pArg

[14] = molecular target: T9, CBP KIX I657A (Mus musculus, UniProt P45481, I657A); assay: Equilibrium fluorescence polarization, CBP KIX variant I657A; format: binding
T9 construct: made in house; host or cells: E. coli BL21(DE3) pArg
T9 sequence (P45481 586-665 I657A limits assumed): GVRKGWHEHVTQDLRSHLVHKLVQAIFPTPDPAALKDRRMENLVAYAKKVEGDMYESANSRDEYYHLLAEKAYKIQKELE

T5 sequence (P45481 586-665 K606A limits assumed): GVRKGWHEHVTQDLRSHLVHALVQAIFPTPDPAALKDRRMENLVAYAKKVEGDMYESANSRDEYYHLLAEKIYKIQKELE
T4 sequence (P45481 586-665 L603A limits assumed): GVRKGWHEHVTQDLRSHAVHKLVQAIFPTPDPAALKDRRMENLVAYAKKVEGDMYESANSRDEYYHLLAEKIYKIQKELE
T3 sequence (P45481 586-665 K662A limits assumed): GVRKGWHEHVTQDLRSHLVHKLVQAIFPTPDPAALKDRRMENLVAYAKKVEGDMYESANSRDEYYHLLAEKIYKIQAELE
T1 sequence (P45481 586-665 L599A limits assumed): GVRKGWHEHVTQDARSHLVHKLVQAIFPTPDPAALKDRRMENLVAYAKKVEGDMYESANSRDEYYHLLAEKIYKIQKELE
T2 sequence (P45481 586-665 Y658F limits assumed): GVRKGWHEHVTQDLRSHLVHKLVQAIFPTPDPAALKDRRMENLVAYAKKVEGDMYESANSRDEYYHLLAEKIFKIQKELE
Chain of Akt kinase (PKB) (P31749 whole entry, species assumed): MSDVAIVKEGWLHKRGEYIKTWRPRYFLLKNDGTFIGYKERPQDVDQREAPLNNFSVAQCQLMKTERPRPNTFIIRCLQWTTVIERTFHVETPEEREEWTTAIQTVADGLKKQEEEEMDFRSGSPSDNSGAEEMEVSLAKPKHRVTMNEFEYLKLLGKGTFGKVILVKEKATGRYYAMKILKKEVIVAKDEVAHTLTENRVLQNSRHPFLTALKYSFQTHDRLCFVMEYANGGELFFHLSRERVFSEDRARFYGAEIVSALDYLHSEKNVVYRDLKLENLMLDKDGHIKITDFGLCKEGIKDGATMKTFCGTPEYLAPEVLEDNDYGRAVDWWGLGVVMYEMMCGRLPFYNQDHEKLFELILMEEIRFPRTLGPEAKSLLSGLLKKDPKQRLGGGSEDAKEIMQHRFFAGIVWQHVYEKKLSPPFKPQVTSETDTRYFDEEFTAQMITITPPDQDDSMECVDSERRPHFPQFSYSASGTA
T7 sequence (P45481 586-665 L652A/L653A): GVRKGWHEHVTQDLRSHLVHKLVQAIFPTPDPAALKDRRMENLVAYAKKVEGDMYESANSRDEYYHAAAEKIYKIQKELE
T8 sequence (P45481 586-665 Y650A limits assumed): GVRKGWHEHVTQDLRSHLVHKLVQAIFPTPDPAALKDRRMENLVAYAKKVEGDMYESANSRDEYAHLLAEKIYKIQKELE
T6 sequence (P45481 586-672): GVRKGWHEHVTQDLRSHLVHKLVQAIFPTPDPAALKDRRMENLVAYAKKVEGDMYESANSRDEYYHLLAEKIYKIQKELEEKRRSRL

Compound	inhibition of PKG phosphotransferase activity [1]	inhibition of PKC-α phosphotransferase activity [2]	inhibition of CamKII phosphotransferase activity [3]	IC50 [4]	inhibition of PKB phosphotransferase activity [5]	ΔΔG vs wild type CBP KIX, L599A [6]	ΔΔG vs wild type CBP KIX, Y658F [7]	ΔΔG vs wild type CBP KIX, K662A [8]	ΔΔG vs wild type CBP KIX, L603A [9]	ΔΔG vs wild type CBP KIX, K606A [10]	ΔΔG of HisKIX binding upon phosphorylation [11]	ΔΔG vs wild type CBP KIX, LL652-3AA [12]	ΔΔG vs wild type CBP KIX, Y650A [13]	ΔΔG vs wild type CBP KIX, I657A [14]
COC(=O)[C@@]1(O)C[C@H]2O[C@]1(C)n1c3ccccc3c3c4c(c5c6ccccc6n2c5c31)C(=O)NC4 [K252a, reference compound]	inhibited by K252a	inhibited by K252a	inhibited by K252a	0.14 ± 0.003 nM	inhibited by K252a									
CC[C@H](C)[C@H](NC(=O)[C@H](CCCCN)NC(=O)[C@H](CCCNC(=N)N)NC(=O)[C@H](Cc1ccc(O)cc1)NC(=O)[C@H](COP(=O)(O)O)NC(=O)[C@@H]1CCCN1C(=O)[C@H](CCCNC(=N)N)NC(=O)[C@H](CCCNC(=N)N)NC(=O)[C@H](CO)NC(=O)[C@H](CC(C)C)NC(=O)[C@@H](NC(=O)[C@H](CCC(=O)O)NC(=O)[C@H](CCCNC(=N)N)NC(=O)[C@H](CCCNC(=N)N)NC(=O)[C@H](CCCCN)NC(=O)[C@H](CCC(N)=O)NC(=O)[C@H](CO)NC(=O)[C@H](CC(=O)O)NC(=O)[C@@H](N)[C@@H](C)O)[C@@H](C)CC)C(=O)N[C@@H](CC(C)C)C(=O)N[C@@H](CC(N)=O)C(=O)N[C@@H](CC(=O)O)C(=O)N[C@@H](CC(C)C)C(=O)N[C@@H](CO)C(=O)N[C@@H](CO)C(=O)N[C@@H](CC(=O)O)C(=O)N[C@@H](C)C(=O)N1CCC[C@H]1C(=O)NCC(=O)N[C@H](C(=O)N[C@@H](CSCC(=O)Nc1ccc2c(c1)C(=O)OC21c2ccc(O)cc2Oc2cc(O)ccc21)C(N)=O)C(C)C [KID-AB, reference compound] (H-TDSQKRREILSRRP[pS]YRKILNDLSSDAPGVC(Fluorescein(5-NHCOCH2))-NH2)						0.58 kcal/mol	2.5 kcal/mol	1.5 kcal/mol	1.2 kcal/mol	1.0 kcal/mol	> 3.2 kcal/mol	1.2 kcal/mol	1.8 kcal/mol	0.9 kcal/mol

— patent US20110028686A1, “Protein binding miniature proteins” (Yale University, priority 2000, published 2011)
